The test system of the assay is MV-4-11 cells. As to the kind of experiment: Gene expression microarray analysis (Affymetrix PrimeView) and GSEA. The assay is classed as cell-based, human. The arrangement: RFU PODN (11730768_x_at) / Fold change /veh PODN (11730768_x_at) / RFU LINC00158 (11744669_a_at) / Fold change /veh LINC00158 (11744669_a_at) / RFU DUSP10 (11751237_a_at) / Fold change /veh DUSP10 (11751237_a_at) / RFU ID3 (11757404_x_at) / Fold change /veh ID3 (11757404_x_at) / RFU PLEKHG5 (11737974_s_at) / Fold change /veh PLEKHG5 (11737974_s_at) / RFU LRRC4B (11730491_at) / Fold change /veh LRRC4B (11730491_at) / RFU GIMAP4 (11747438_a_at) / Fold change /veh GIMAP4 (11747438_a_at) / RFU KRT8 (11758183_x_at) / Fold change /veh KRT8 (11758183_x_at) / RFU CNN1 (11734310_a_at) / Fold change /veh CNN1 (11734310_a_at) / RFU VPS37D (11726825_at) / Fold change /veh VPS37D (11726825_at) / RFU C10orf10 (11716522_x_at) / Fold change /veh C10orf10 (11716522_x_at) / RFU KIR2DL2 /// KIR2DL4 /// KIR2DL5A /// KIR2DL5B /// KIR2DS1 /// KIR2DS2 /// KIR2DS3 /// KIR2DS4 /// KIR3DL3 /// KIR3DL3 /// KIR3DS1 (11738374_at) / Fold change /veh KIR2DL2 /// KIR2DL4 /// KIR2DL5A /// KIR2DL5B /// KIR2DS1 /// KIR2DS2 /// KIR2DS3 /// KIR2DS4 /// KIR3DL3 /// KIR3DL3 /// KIR3DS1 (11738374_at) / RFU C1QL1 (11718748_at) / Fold change /veh C1QL1 (11718748_at) / RFU TMPRSS4 (11747572_a_at) / Fold change /veh TMPRSS4 (11747572_a_at) / RFU HAMP (11756126_x_at) / Fold change /veh HAMP (11756126_x_at) / RFU RNFT2 (11725882_a_at) / Fold change /veh RNFT2 (11725882_a_at) / RFU NR4A2 (11747474_a_at) / Fold change /veh NR4A2 (11747474_a_at) / RFU ABCC12 (11746883_a_at) / Fold change /veh ABCC12 (11746883_a_at) / RFU TMEM136 (11760407_x_at) / Fold change /veh TMEM136 (11760407_x_at) / RFU CLDN22 /// WWC2 (11732394_at) / Fold change /veh CLDN22 /// WWC2 (11732394_at) / RFU HLA-DPB1 (11760878_x_at) / Fold change /veh HLA-DPB1 (11760878_x_at) / RFU SPINT1 (11716480_a_at) / Fold change /veh SPINT1 (11716480_a_at) / RFU GAP43 (11754022_s_at) / Fold change /veh GAP43 (11754022_s_at) / RFU A4GNT (11735810_at) / Fold change /veh A4GNT (11735810_at) / RFU PRB3 (11715151_x_at) / Fold change /veh PRB3 (11715151_x_at) / RFU TUBB4B (11761932_at) / Fold change /veh TUBB4B (11761932_at) / RFU CAPN14 (11732068_a_at) / Fold change /veh CAPN14 (11732068_a_at) / RFU TMCC2 (11721928_a_at) / Fold change /veh TMCC2 (11721928_a_at) / RFU IRGQ (11745062_a_at) / Fold change /veh IRGQ (11745062_a_at) / RFU FAM174B (11720279_a_at) / Fold change /veh FAM174B (11720279_a_at) / RFU TMPRSS4 (11748680_a_at) / Fold change /veh TMPRSS4 (11748680_a_at) / RFU FAM212B (11763350_a_at) / Fold change /veh FAM212B (11763350_a_at) / RFU PLEKHG5 (11743358_a_at) / Fold change /veh PLEKHG5 (11743358_a_at) / RFU ZSCAN30 (11745921_a_at) / Fold change /veh ZSCAN30 (11745921_a_at) / RFU CMKLR1 (11741424_a_at) / Fold change /veh CMKLR1 (11741424_a_at) / RFU LOC101060620 /// MAPK8IP1 (11723275_at) / Fold change /veh LOC101060620 /// MAPK8IP1 (11723275_at) / RFU SPTSSB (11747773_x_at) / Fold change /veh SPTSSB (11747773_x_at) / RFU PRSS12 (11739890_at) / Fold change /veh PRSS12 (11739890_at) / RFU BIN1 (11741810_x_at) / Fold change /veh BIN1 (11741810_x_at) / RFU WNT11 (11732464_a_at) / Fold change /veh WNT11 (11732464_a_at) / RFU C10orf10 (11716521_a_at) / Fold change /veh C10orf10 (11716521_a_at) / RFU C5orf56 (11738089_at) / Fold change /veh C5orf56 (11738089_at) / RFU CYB561 (11721691_x_at) / Fold change /veh CYB561 (11721691_x_at) / RFU ANKRD19P (11752326_a_at) / Fold change /veh ANKRD19P (11752326_a_at) / RFU OR2T12 /// OR2T33 /// OR2T8 (11738714_s_at) / Fold change /veh OR2T12 /// OR2T33 /// OR2T8 (11738714_s_at) / RFU VCAN (11748164_a_at) / Fold change /veh VCAN (11748164_a_at) / RFU JSRP1 (11732532_at) / Fold change /veh JSRP1 (11732532_at) / RFU KRTAP10-11 (11738290_x_at) / Fold change /veh KRTAP10-11 (11738290_x_at) / RFU MYO3A (11730013_a_at) / Fold change /veh MYO3A (11730013_a_at) / RFU EBF3 (11725865_a_at) / Fold change /veh EBF3 (11725865_a_at) / RFU CAMK2N1 (11719241_x_at) / Fold change /veh CAMK2N1 (11719241_x_at) / RFU C5orf56 (11738088_a_at) / Fold change /veh C5orf56 (11738088_a_at) / RFU OLFML3 (11715873_a_at) / Fold change /veh OLFML3 (11715873_a_at) / RFU LOC100653217 /// NTM (11731650_a_at) / Fold change /veh LOC100653217 /// NTM (11731650_a_at) / RFU MAPK11 (11762145_a_at) / Fold change /veh MAPK11 (11762145_a_at) / RFU FIZ1 (11724087_x_at) / Fold change /veh FIZ1 (11724087_x_at) / RFU OASL (11726364_x_at) / Fold change /veh OASL (11726364_x_at) / RFU SOX15 (11748057_x_at) / Fold change /veh SOX15 (11748057_x_at) / RFU CD79A (11719716_a_at) / Fold change /veh CD79A (11719716_a_at) / RFU HIST1H1D (11736915_at) / Fold change /veh HIST1H1D (11736915_at) / RFU CASKIN2 (11723855_a_at) / Fold change /veh CASKIN2 (11723855_a_at) / RFU LOC730098 (11760151_x_at) / Fold change /veh LOC730098 (11760151_x_at) / RFU OR4N2 (11742367_at) / Fold change /veh OR4N2 (11742367_at) / RFU PRRT2 (11749266_a_at) / Fold change /veh PRRT2 (11749266_a_at) / RFU SNX32 (11753110_a_at) / Fold change /veh SNX32 (11753110_a_at) / RFU CDHR5 (11726645_a_at) / Fold change /veh CDHR5 (11726645_a_at) / RFU RCAN1 (11760418_a_at) / Fold change /veh RCAN1 (11760418_a_at) / RFU FAM167A (11723789_a_at) / Fold change /veh FAM167A (11723789_a_at) / RFU FAM26E (11764081_at) / Fold change /veh FAM26E (11764081_at) / RFU ISYNA1 (11749810_s_at) / Fold change /veh ISYNA1 (11749810_s_at) / RFU ACY1 (11761880_at) / Fold change /veh ACY1 (11761880_at) / RFU 11764098_at / Fold change /veh 11764098_at / RFU SAMD14 (11745864_x_at) / Fold change /veh SAMD14 (11745864_x_at) / RFU NPB (11741838_a_at) / Fold change /veh NPB (11741838_a_at) / RFU TMPRSS6 (11731388_a_at) / Fold change /veh TMPRSS6 (11731388_a_at) / RFU KRTAP10-2 (11738614_at) / Fold change /veh KRTAP10-2 (11738614_at) / RFU ARHGAP8 /// PRR5-ARHGAP8 (11727945_x_at) / Fold change /veh ARHGAP8 /// PRR5-ARHGAP8 (11727945_x_at) / RFU KRTAP5-7 /// NADSYN1 (11734609_at) / Fold change /veh KRTAP5-7 /// NADSYN1 (11734609_at) / RFU RASL12 (11751679_a_at) / Fold change /veh RASL12 (11751679_a_at) / RFU CDKN2B (11736163_a_at) / Fold change /veh CDKN2B (11736163_a_at) / RFU PRF1 (11729649_at) / Fold change /veh PRF1 (11729649_at) / RFU, ZNF638 /// ZNF638-IT1 / Fold change vs veh, ZNF638 /// ZNF638-IT1 / RFU, PANK3 / Fold change vs veh, PANK3 / RFU, SH3YL1 / Fold change vs veh, SH3YL1 / RFU, ZEB2 / Fold change vs veh, ZEB2 / RFU, NRIP1 / Fold change vs veh, NRIP1 / RFU, PTTG1IP / Fold change vs veh, PTTG1IP / RFU, CAPN2 / Fold change vs veh, CAPN2 / RFU, MED14 / Fold change vs veh, MED14 / RFU, SNORA58 / Fold change vs veh, SNORA58 / RFU, C1orf63 / Fold change vs veh, C1orf63 / RFU, LRRFIP1 / Fold change vs veh, LRRFIP1 / RFU, NDUFAF7 / Fold change vs veh, NDUFAF7 / RFU, SLC12A2 / Fold change vs veh, SLC12A2 / RFU, IBTK / Fold change vs veh, IBTK / RFU, ESF1 / Fold change vs veh, ESF1 / Fold change vs veh, TMEM50B / RFU, TAOK1 / Fold change vs veh, TAOK1 / RFU, ACBD3 / Fold change vs veh, ACBD3 / RFU, TMA16 / Fold change vs veh, TMA16 / RFU, RWDD3 / Fold change vs veh, RWDD3 / RFU, BCAT1 / Fold change vs veh, BCAT1 / RFU, EDEM3 / Fold change vs veh, EDEM3 / RFU, TMEM33 / Fold change vs veh, TMEM33 / RFU, WDR75 / Fold change vs veh, WDR75 / RFU, AHCTF1 / Fold change vs veh, AHCTF1 / RFU, TFRC / Fold change vs veh, TFRC / RFU, ZDHHC17 / Fold change vs veh, ZDHHC17 / RFU, NOM1 / Fold change vs veh, NOM1 / RFU, ARL8B / Fold change vs veh, ARL8B / RFU, ZBTB11 / Fold change vs veh, ZBTB11 / RFU, TAMM41 / Fold change vs veh, TAMM41 / RFU, KIAA1704 /// LOC100996395 / Fold change vs veh, KIAA1704 /// LOC100996395 / RFU, ING1 / Fold change vs veh, ING1 / RFU, TRMT61B / Fold change vs veh, TRMT61B / RFU, FUBP3 / Fold change vs veh, FUBP3 / RFU, TP53 / Fold change vs veh, TP53 / RFU, TNKS2 / Fold change vs veh, TNKS2 / RFU, ZFP14 / Fold change vs veh, ZFP14 / RFU, ACTR2 / Fold change vs veh, ACTR2 / RFU, PPP3R1 / Fold change vs veh, PPP3R1 / RFU, PIK3R1 / Fold change vs veh, PIK3R1 / RFU, HNRNPA1 / Fold change vs veh, HNRNPA1 / RFU, RNF170 / Fold change vs veh, RNF170 / RFU, ZNF28 / Fold change vs veh, ZNF28 / RFU, RNGTT / Fold change vs veh, RNGTT / RFU, OGT / Fold change vs veh, OGT / RFU, BRD1 / Fold change vs veh, BRD1 / RFU, MARS / Fold change vs veh, MARS / RFU, ZNF655 / Fold change vs veh, ZNF655 / RFU, FAHD1 / Fold change vs veh, FAHD1 / RFU, BDP1 / Fold change vs veh, BDP1 / RFU, LRRCC1 / Fold change vs veh, LRRCC1 / RFU, ARID1A / Fold change vs veh, ARID1A / RFU, ZNF146 / Fold change vs veh, ZNF146 / RFU, ZNF330 / Fold change vs veh, ZNF330 / RFU, GPN3 / Fold change vs veh, GPN3 / RFU, C9orf123 / Fold change vs veh, C9orf123 / RFU, N4BP2L2 / Fold change vs veh, N4BP2L2 / RFU, ARFIP1 / Fold change vs veh, ARFIP1 / RFU, FAM179B / Fold change vs veh, FAM179B / RFU, BCL10 / Fold change vs veh, BCL10 / RFU, UHRF1BP1L / Fold change vs veh, UHRF1BP1L / RFU, BET1 / Fold change vs veh, BET1 / RFU, CNOT2 / Fold change vs veh, CNOT2 / RFU, ZNF268 / Fold change vs veh, ZNF268 / Fold change vs veh, ZNF507 / RFU, DGCR2 / Fold change vs veh, DGCR2 / RFU, WDSUB1 / Fold change vs veh, WDSUB1 / Fold change vs veh, HSP90B1 /// MIR3652 / RFU, ADSS / Fold change vs veh, ADSS / RFU, GK / Fold change vs veh, GK / RFU, ZNF148 / Fold change vs veh, ZNF148 / RFU, TAF9 / Fold change vs veh, TAF9 / RFU, SLC1A5 / Fold change vs veh, SLC1A5 / RFU, SLMO2 / Fold change vs veh, SLMO2 / RFU, ABCC4 / Fold change vs veh, ABCC4 / RFU, LOC101060439 /// RAP1B / Fold change vs veh, LOC101060439 /// RAP1B / RFU, RFX7 / Fold change vs veh, RFX7 / RFU, GTPBP10 / Fold change vs veh, GTPBP10 / RFU, CNEP1R1 / Fold change vs veh, CNEP1R1 / RFU, BIVM-ERCC5 /// ERCC5 / Fold change vs veh, BIVM-ERCC5 /// ERCC5 / RFU, ILF3 / Fold change vs veh, ILF3 / RFU 11762660_at / Fold change /veh 11762660_at / RFU VCAN (11757783_s_at) / Fold change /veh VCAN (11757783_s_at) / RFU DDX43 (11728927_at) / Fold change /veh DDX43 (11728927_at) / RFU KRT8 (11758188_x_at) / Fold change /veh KRT8 (11758188_x_at) / RFU NKD1 (11759106_at) / Fold change /veh NKD1 (11759106_at) / RFU SRD5A1 (11742802_a_at) / Fold change /veh SRD5A1 (11742802_a_at) / RFU TPSAB1 /// TPSB2 (11721975_s_at) / Fold change /veh TPSAB1 /// TPSB2 (11721975_s_at) / RFU GSTM3 (11746129_a_at) / Fold change /veh GSTM3 (11746129_a_at) / RFU IL23R (11737362_x_at) / Fold change /veh IL23R (11737362_x_at) / RFU TMEM51 (11727254_a_at) / Fold change /veh TMEM51 (11727254_a_at) / RFU PIWIL2 (11732686_x_at) / Fold change /veh PIWIL2 (11732686_x_at) / RFU ORM1 (11744905_x_at) / Fold change /veh ORM1 (11744905_x_at) / RFU CCDC152 (11743942_at) / Fold change /veh CCDC152 (11743942_at) / RFU ECM1 (11717891_a_at) / Fold change /veh ECM1 (11717891_a_at) / RFU IL23R (11748794_a_at) / Fold change /veh IL23R (11748794_a_at) / RFU TNFAIP8L3 (11732012_x_at) / Fold change /veh TNFAIP8L3 (11732012_x_at) / RFU MBOAT4 (11741988_at) / Fold change /veh MBOAT4 (11741988_at) / RFU 11764193_at / Fold change /veh 11764193_at / RFU TMEM53 (11763286_at) / Fold change /veh TMEM53 (11763286_at) / RFU MAGEB2 (11727129_at) / Fold change /veh MAGEB2 (11727129_at) / RFU TMEM200A (11744735_a_at) / Fold change /veh TMEM200A (11744735_a_at) / RFU CCDC152 (11751479_a_at) / Fold change /veh CCDC152 (11751479_a_at) / RFU FAM211A (11726209_a_at) / Fold change /veh FAM211A (11726209_a_at) / RFU RGS16 (11746705_a_at) / Fold change /veh RGS16 (11746705_a_at) / RFU VCAN (11755009_s_at) / Fold change /veh VCAN (11755009_s_at) / RFU RHOB (11743442_s_at) / Fold change /veh RHOB (11743442_s_at) / RFU RGS16 (11720943_a_at) / Fold change /veh RGS16 (11720943_a_at) / RFU RGS16 (11720944_at) / Fold change /veh RGS16 (11720944_at) / RFU, VPS4B / Fold change vs veh, VPS4B / RFU, CREB1 / Fold change vs veh, CREB1 / RFU, DNAJC13 / Fold change vs veh, DNAJC13 / RFU, GNAQ / Fold change vs veh, GNAQ / RFU, CDK5R1 / Fold change vs veh, CDK5R1 / RFU, ZRANB3 / Fold change vs veh, ZRANB3 / RFU, CUL4A / Fold change vs veh, CUL4A / RFU, CCNY / Fold change vs veh, CCNY / RFU, UFL1 / Fold change vs veh, UFL1 / RFU, COG3 / Fold change vs veh, COG3 / RFU, DIAPH2 / Fold change vs veh, DIAPH2 / RFU, SKA2 / Fold change vs veh, SKA2 / RFU, AFF3 / Fold change vs veh, AFF3 / RFU, LMF1 / Fold change vs veh, LMF1 / RFU, IPO11 / Fold change vs veh, IPO11 / RFU, DFFB / Fold change vs veh, DFFB / RFU, FOXP1 / Fold change vs veh, FOXP1 / RFU, CARD8 / Fold change vs veh, CARD8 / RFU, STRN3 / Fold change vs veh, STRN3 / RFU, ADK / Fold change vs veh, ADK / RFU, RASSF2 / Fold change vs veh, RASSF2 / RFU, WIPF1 / Fold change vs veh, WIPF1 / RFU, LARP1B / Fold change vs veh, LARP1B / RFU, RASA1 / Fold change vs veh, RASA1 / RFU, RB1 / Fold change vs veh, RB1 / RFU, PPFIA1 / Fold change vs veh, PPFIA1 / RFU, MAT2A / Fold change vs veh, MAT2A / RFU, CCT5 / Fold change vs veh, CCT5 / RFU, WDR92 / Fold change vs veh, WDR92 / RFU, CUX1 / Fold change vs veh, CUX1 / RFU, TTC7A / Fold change vs veh, TTC7A / RFU, TMEM135 / Fold change vs veh, TMEM135 / RFU, DEPTOR / Fold change vs veh, DEPTOR / RFU, CPM / Fold change vs veh, CPM / RFU, DNAJB6 / Fold change vs veh, DNAJB6 / RFU, CACNA2D3 / Fold change vs veh, CACNA2D3 / RFU, DTX4 / Fold change vs veh, DTX4 / RFU, TFCP2 / Fold change vs veh, TFCP2 / RFU, GMCL1 /// GMCL1P1 / Fold change vs veh, GMCL1 /// GMCL1P1 / RFU, AEBP2 / Fold change vs veh, AEBP2 / RFU, SNHG1 /// SNORD22 /// SNORD25 /// SNORD26 /// SNORD27 /// SNORD28 /// SNORD29 /// SNORD31 / Fold change vs veh, SNHG1 /// SNORD22 /// SNORD25 /// SNORD26 /// SNORD27 /// SNORD28 /// SNORD29 /// SNORD31 / Fold change (Aza/veh), C12orf56 (ProbeSet 11735607_a_at) / Fold change (ACY-1035/veh), C12orf56 (ProbeSet 11735607_a_at) / Fold change (Aza/veh), FGFR1OP (ProbeSet 11751329_s_at) / Fold change (ACY-1035/veh), FGFR1OP (ProbeSet 11751329_s_at) / Fold change (Aza/veh), VPS36 (ProbeSet 11739960_a_at) / Fold change (ACY-1035/veh), VPS36 (ProbeSet 11739960_a_at) / RFU SYPL1 (11715823_x_at) / Fold change /veh SYPL1 (11715823_x_at) / RFU IGFBP7 (11715501_s_at) / Fold change /veh IGFBP7 (11715501_s_at) / RFU REEP3 (11722064_at) / Fold change /veh REEP3 (11722064_at) / RFU IGLL1 (11728026_x_at) / Fold change /veh IGLL1 (11728026_x_at): dose or concentration left out as unconfirmed. The conditions noted are these: MV-4-11 cells, 48 hours.

For `Nc1ccc(-c2cccs2)cc1NC(=O)c1ccc2c(c1)cc(C1CC1)n2CCN1CCOCC1` [ACY-1035], the “Fold change /veh TMPRSS4 (11748680_a_at)” value stood at 1.05.

The record behind these values is paper PMC5218480 (PLoS ONE, 2017).
